Experimental data taken from patent publication US6339045B1, “N-(unsubstituted or substituted)-4-substituted-6-(unsubstituted or substituted)phenoxy-2-pyridinecarboxamides or thiocarboxamides, processes for producing the same, and herbicides” (Kureha Kagaku Kogyo Kabushiki Kaisha, priority 1995, dated 2002).

Assays:
Test in all cases: Herbicidal effect by foliage and soil treatment
Type in all cases: in vivo
Details in all cases: 10 g ai/10a, evaluated after 14 days
[1] = system: ivyleafspeedwell (Veronica hederaefolia)
In short: (§1)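 Post-emergence spray, cotyledon to bifoliate stage; Tween 20/water vehicle, fixed dose per area; greenhouse 19–25 °C; 14 d; visual growth rating vs untreated.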

[2] = system: wild chamomile (Matricaria chamomilla)
In short: as §1

[3] = system: velvetleaf (Abutilon theophrasti)
In short: as §1

[4] = system: sicklepod (Cassia obtusifolia)
In short: as §1

[5] = system: field bindweed (Convolvulus arvensis)
In short: as §1

[6] = system: common blackjack (Bidens pilosa)
In short: as §1

[7] = system: common chickweed (Stellaria media)
In short: as §1

[8] = system: kediock (Sinapis arvensis)
In short: as §1

[9] = system: black nightshade (Solanum nigrum)
In short: as §1

[10] = system: redroot pigweed (Amaranthus retroflexus)
In short: as §1

[11] = system: cleavers (Galium aparine)
In short: as §1

Compound	herbicidal activity rating, VH (Veronica hederaefolia) [1]	herbicidal activity rating, MC (Matricaria chamomilla) [2]	herbicidal activity rating, AT (Abutilon theophrasti) [3]	herbicidal activity rating, CO (Cassia obtusifolia) [4]	herbicidal activity rating, CA (Convolvulus arvensis) [5]	herbicidal activity rating, BP (Bidens pilosa) [6]	herbicidal activity rating, SM (Stellaria media) [7]	herbicidal activity rating, SA (Sinapis arvensis) [8]	herbicidal activity rating, SN (Solanum nigrum) [9]	herbicidal activity rating, AR (Amaranthus retroflexus) [10]	herbicidal activity rating, GA (Galium aparine) [11]
CCN(CC)C(=O)c1cc(OC)cc(Oc2cccc(C(F)(F)F)c2)n1 [Compound I-200, N,N-diethyl-4-methoxy-6-{3-(trifluoromethyl)phenoxy}-2-pyridine carboxamide]	5 (percentage of weeds killed was not less than 80%)	4 (percentage of weeds killed was not less than 60% and less than 80%)	5 (percentage of weeds killed was not less than 80%)	5 (percentage of weeds killed was not less than 80%)	5 (percentage of weeds killed was not less than 80%)	2 (percentage of weeds killed was not less than 20% and less than 40%)	5 (percentage of weeds killed was not less than 80%)	5 (percentage of weeds killed was not less than 80%)	5 (percentage of weeds killed was not less than 80%)	5 (percentage of weeds killed was not less than 80%)	5 (percentage of weeds killed was not less than 80%)
CCN(C)C(=O)c1cc(OC)cc(Oc2cccc(C(F)(F)F)c2)n1 [Compound I-201]	5 (percentage of weeds killed was not less than 80%)	2 (percentage of weeds killed was not less than 20% and less than 40%)	4 (percentage of weeds killed was not less than 60% and less than 80%)	5 (percentage of weeds killed was not less than 80%)	5 (percentage of weeds killed was not less than 80%)	2 (percentage of weeds killed was not less than 20% and less than 40%)	5 (percentage of weeds killed was not less than 80%)	5 (percentage of weeds killed was not less than 80%)	5 (percentage of weeds killed was not less than 80%)	5 (percentage of weeds killed was not less than 80%)	5 (percentage of weeds killed was not less than 80%)
CNN(C)C(=O)c1cc(OC)cc(Oc2cccc(C(F)(F)F)c2)n1 [Compound I-202, N-methyl-N-methylamino-4-methoxy-6-{3-(trifluoromethyl)phenoxy}-2-pyridine carboxamide]	5 (percentage of weeds killed was not less than 80%)	3 (percentage of weeds killed was not less than 40% and less than 60%)	4 (percentage of weeds killed was not less than 60% and less than 80%)	5 (percentage of weeds killed was not less than 80%)	4 (percentage of weeds killed was not less than 60% and less than 80%)	4 (percentage of weeds killed was not less than 60% and less than 80%)	5 (percentage of weeds killed was not less than 80%)	5 (percentage of weeds killed was not less than 80%)	5 (percentage of weeds killed was not less than 80%)	5 (percentage of weeds killed was not less than 80%)	5 (percentage of weeds killed was not less than 80%)
COc1cc(Oc2cccc(C(F)(F)F)c2)nc(C(=O)N(C)OC)c1 [Compound I-203]	5 (percentage of weeds killed was not less than 80%)	2 (percentage of weeds killed was not less than 20% and less than 40%)	4 (percentage of weeds killed was not less than 60% and less than 80%)	5 (percentage of weeds killed was not less than 80%)	4 (percentage of weeds killed was not less than 60% and less than 80%)	3 (percentage of weeds killed was not less than 40% and less than 60%)	4 (percentage of weeds killed was not less than 60% and less than 80%)	5 (percentage of weeds killed was not less than 80%)	5 (percentage of weeds killed was not less than 80%)	5 (percentage of weeds killed was not less than 80%)	5 (percentage of weeds killed was not less than 80%)
COc1cc(Oc2cccc(C(F)(F)F)c2)nc(C(=O)N2CC2C)c1 (stereo not drawn) [Compound I-300, 4-methoxy-2-{N-(2-methylaziridinyl)carbonyl}-6-{3-(trifluoromethyl)phenoxy}-2-pyridine]	5 (percentage of weeds killed was not less than 80%)	2 (percentage of weeds killed was not less than 20% and less than 40%)	4 (percentage of weeds killed was not less than 60% and less than 80%)	5 (percentage of weeds killed was not less than 80%)	4 (percentage of weeds killed was not less than 60% and less than 80%)	5 (percentage of weeds killed was not less than 80%)	5 (percentage of weeds killed was not less than 80%)	5 (percentage of weeds killed was not less than 80%)	5 (percentage of weeds killed was not less than 80%)	5 (percentage of weeds killed was not less than 80%)	5 (percentage of weeds killed was not less than 80%)
COc1cc(Oc2cccc(C(F)(F)F)c2)nc(C(=O)N2CCCC2)c1 [Compound I-302, 4-methoxy-2-{N-(pyrrolidinyl)carbonyl}-6-{3-(trifluoromethyl)phenoxy}pyridine]	5 (percentage of weeds killed was not less than 80%)	4 (percentage of weeds killed was not less than 60% and less than 80%)	4 (percentage of weeds killed was not less than 60% and less than 80%)	5 (percentage of weeds killed was not less than 80%)	4 (percentage of weeds killed was not less than 60% and less than 80%)	2 (percentage of weeds killed was not less than 20% and less than 40%)	5 (percentage of weeds killed was not less than 80%)	5 (percentage of weeds killed was not less than 80%)	5 (percentage of weeds killed was not less than 80%)	5 (percentage of weeds killed was not less than 80%)	5 (percentage of weeds killed was not less than 80%)
